Measured values reported in PubChem BioAssay AID270 (DTP/NCI, 2004).
Values joined by “and” are separate entries in the source; they are usually repeats but may differ in a detail not shown here. Equal values may be shown once. Results filed as inconclusive are left out.

Tested on: BDF1 mice, s.c. Lewis lung carcinoma, T/C %
Test: NCI In Vivo Anticancer Drug Screen. Data for tumor model Lewis Lung Carcinoma (subcutaneous) in B6D2F1 (BDF1) mice
Protocol: The antitumor activity of compounds was measured in mice bearing transplantable tumors. Survival or tumor size were measured and the results are expressed as the measurement made in the treated group (T) divided by the measurement made in the vehicle treated control group (C). The tumor model used in this assay is Lewis Lung Carcinoma (subcutaneous) in B6D2F1 (BDF1) mice

[1] = endpoint: median survival time, dose: 6.25 mg/kg/injection, schedule: Q01DX009 (ip), vehicle: Klucel (hydroxypropylcellulose) (HPC), higher = longer survival
[2] = endpoint: median survival time, dose: 6.25 mg/kg/injection, schedule: Q01DX009 (ip), vehicle: saline with Tween-80, higher = longer survival
[3] = endpoint: median survival time, dose: 12.5 mg/kg/injection, schedule: Q01DX009 (ip), vehicle: Klucel (hydroxypropylcellulose) (HPC), higher = longer survival
[4] = endpoint: median survival time, dose: 12.5 mg/kg/injection, schedule: Q01DX009 (ip), vehicle: saline with Tween-80, higher = longer survival
[5] = endpoint: median survival time, dose: 25.0 mg/kg/injection, schedule: Q01DX009 (ip), vehicle: Klucel (hydroxypropylcellulose) (HPC), higher = longer survival
[6] = endpoint: median survival time, dose: 50.0 mg/kg/injection, schedule: Q01DX009 (ip), vehicle: Klucel (hydroxypropylcellulose) (HPC), higher = longer survival
[7] = endpoint: mean tumor weight, dose: 50.0 mg/kg/injection, schedule: Q01DX011 (ip), vehicle: saline, higher = larger tumour
[8] = endpoint: mean tumor weight, dose: 200.0 mg/kg/injection, schedule: Q01DX011 (ip), vehicle: saline, higher = larger tumour
[9] = endpoint: mean tumor weight, dose: 400.0 mg/kg/injection, schedule: Q01DX011 (ip), vehicle: saline, higher = larger tumour

For `Cc1cnc(/C=N\NC(N)=S)c2cccc(N)c12`, the T/C [1] was 112 % of control, the T/C [2] was 106 % of control and the T/C [3] was 90 % of control. The T/C [4] was 110 % of control, the T/C [5] was 86 % of control and the T/C (endpoint: median survival time, dose: 25.0 mg/kg/injection, schedule: Q01DX009 (ip), vehicle: saline with Tween-80, higher = longer survival) was 117 % of control. The T/C [6] was 95 % of control.
In the case of `CSc1ncnc2c1ncn2C1CCCO1` (configuration not stated), the T/C (endpoint: mean tumor weight, dose: 10.0 mg/kg/injection, schedule: Q01DX011 (ip), vehicle: other, higher = larger tumour) is reported as 103 % of control, the T/C (endpoint: mean tumor weight, dose: 20.0 mg/kg/injection, schedule: Q01DX011 (ip), vehicle: other, higher = larger tumour) is reported as 53 % of control and the T/C (endpoint: mean tumor weight, dose: 40.0 mg/kg/injection, schedule: Q01DX011 (ip), vehicle: other, higher = larger tumour) is reported as 68 % of control. The T/C (endpoint: mean tumor weight, dose: 80.0 mg/kg/injection, schedule: Q01DX011 (ip), vehicle: other, higher = larger tumour) was 86 % of control.
`COc1cc2c(c(OC)c1OC)-c1ccc(OC)c(=O)cc1[C@@H](NC(=O)CF)CC2` was tested, and the T/C (endpoint: median survival time, dose: 0.04 mg/kg/injection, schedule: Q01DX009 (ip), vehicle: saline with Tween-80, higher = longer survival) was 100 % of control, the T/C (endpoint: median survival time, dose: 0.09 mg/kg/injection, schedule: Q01DX009 (ip), vehicle: saline with Tween-80, higher = longer survival) was 95 % of control and the T/C (endpoint: median survival time, dose: 0.18 mg/kg/injection, schedule: Q01DX009 (ip), vehicle: saline with Tween-80, higher = longer survival) was 95 % of control.
`CC[CH2][Pb]([Cl])([CH2]CC)[CH2]CC` was tested, and the T/C (endpoint: median survival time, dose: 0.01 mg/kg/injection, schedule: Q01DX009 (ip), vehicle: DMSO, higher = longer survival) was 101 % of control, the T/C (endpoint: median survival time, dose: 0.02 mg/kg/injection, schedule: Q01DX009 (ip), vehicle: DMSO, higher = longer survival) was 93 % of control and the T/C (endpoint: median survival time, dose: 0.04 mg/kg/injection, schedule: Q01DX009 (ip), vehicle: DMSO, higher = longer survival) was 98 % of control. The T/C (endpoint: median survival time, dose: 0.04 mg/kg/injection, schedule: Q01DX009 (ip), vehicle: Klucel (hydroxypropylcellulose) (HPC), higher = longer survival) was 94 % of control, the T/C (endpoint: median survival time, dose: 0.08 mg/kg/injection, schedule: Q01DX009 (ip), vehicle: DMSO, higher = longer survival) was 107 % of control and the T/C (endpoint: median survival time, dose: 0.09 mg/kg/injection, schedule: Q01DX009 (ip), vehicle: Klucel (hydroxypropylcellulose) (HPC), higher = longer survival) was 106 % of control. For the same compound, the T/C (endpoint: median survival time, dose: 0.18 mg/kg/injection, schedule: Q01DX009 (ip), vehicle: Klucel (hydroxypropylcellulose) (HPC), higher = longer survival) was 100 % of control, the T/C (endpoint: median survival time, dose: 0.37 mg/kg/injection, schedule: Q01DX009 (ip), vehicle: DMSO, higher = longer survival) was 108 % of control and the T/C (endpoint: median survival time, dose: 0.37 mg/kg/injection, schedule: Q01DX009 (ip), vehicle: Klucel (hydroxypropylcellulose) (HPC), higher = longer survival) was 104 % of control.
In the case of `CC(=O)O[C@]1(C(C)=O)CC[C@H]2[C@@H]3C[C@H](C)C4=CC(=O)CC[C@]4(C)[C@H]3CC[C@@]21C`, the T/C [6] is reported as 203 % of control, the T/C (endpoint: median survival time, dose: 100.0 mg/kg/injection, schedule: Q01DX009 (ip), vehicle: Klucel (hydroxypropylcellulose) (HPC), higher = longer survival) is reported as 204 % of control and the T/C (endpoint: median survival time, dose: 200.0 mg/kg/injection, schedule: Q01DX009 (ip), vehicle: Klucel (hydroxypropylcellulose) (HPC), higher = longer survival) is reported as 119 % of control. For the same compound, the T/C (endpoint: median survival time, dose: 400.0 mg/kg/injection, schedule: Q01DX009 (ip), vehicle: Klucel (hydroxypropylcellulose) (HPC), higher = longer survival) was 203 % of control.
With `COC1C(O)CC(OC2CC(OC3CC(O[C@@H]4C(=O)c5c(cc6cc(OC7CC(OC8CC(O)C(O)C(C)O8)C(O)C(C)O7)c(C)c(O)c6c5O)C[C@H]4[C@H](OC)C(=O)[C@@H](O)[C@@H](C)O)OC(C)C3O)OC(C)C2O)OC1C` (some centres not stated) the T/C (endpoint: median survival time, dose: 37.5 micrograms/kg/injection, schedule: Q01DX009 (ip), vehicle: water, higher = longer survival) was 110 % of control, the T/C (endpoint: median survival time, dose: 75.0 micrograms/kg/injection, schedule: Q01DX009 (ip), vehicle: water, higher = longer survival) was 118 % of control and the T/C (endpoint: median survival time, dose: 150.0 micrograms/kg/injection, schedule: Q01DX009 (ip), vehicle: water, higher = longer survival) was 86 % of control.
`O=c1c(O)c(-c2ccc(O)c(O)c2)oc2cc(O)ccc12` was tested, and the T/C (endpoint: mean tumor weight, dose: 12.5 mg/kg/injection, schedule: Q01DX011 (ip), vehicle: saline, higher = larger tumour) was 99 % of control, the T/C (endpoint: mean tumor weight, dose: 25.0 mg/kg/injection, schedule: Q01DX011 (ip), vehicle: saline, higher = larger tumour) was 95 % of control and the T/C [7] was 91 % of control.
`CCCCOB(/C=C/Sc1ccccc1)OCCCC` was tested, and the T/C (endpoint: median survival time, dose: 50.0 mg/kg/injection, schedule: Q01DX009 (ip), vehicle: saline with Tween-80, higher = longer survival) was 95 % of control.
In the case of `Oc1c(Cl)cc(Cl)cc1/C=N/NC(=S)Nc1cc(C(F)(F)F)cc(C(F)(F)F)c1`, the T/C (endpoint: median survival time, dose: 3.13 mg/kg/injection, schedule: Q01DX009 (ip), vehicle: olive oil, sesame oil, peanut oil, higher = longer survival) is reported as 104 % of control and the T/C (endpoint: median survival time, dose: 12.5 mg/kg/injection, schedule: Q01DX009 (ip), vehicle: olive oil, sesame oil, peanut oil, higher = longer survival) is reported as 90 % of control.
`Nc1ccccc1Br` was tested, and the T/C (endpoint: mean tumor weight, dose: 222.0 mg/kg/injection, schedule: Q01DX011 (ip), vehicle: other, higher = larger tumour) was 114 % of control and the T/C (endpoint: mean tumor weight, dose: 333.0 mg/kg/injection, schedule: Q01DX011 (ip), vehicle: other, higher = larger tumour) was 102 % of control.
`S=P(NCCNP(=S)(N1CC1)N1CC1)(N1CC1)N1CC1` was tested, and the T/C [1] was 100 % of control, the T/C [3] was 102 % of control and the T/C [5] was 104 % of control.
For `CNC=O`, the T/C (endpoint: mean tumor weight, dose: 250.0 mg/kg/injection, schedule: Q01DX011 (ip), vehicle: saline, higher = larger tumour) was 67 % of control and 69 % of control and the T/C (endpoint: mean tumor weight, dose: 500.0 mg/kg/injection, schedule: Q01DX011 (ip), vehicle: saline, higher = larger tumour) was 10 % of control and 12 % of control.
In the case of `O=[N+]([O-])c1ccc2c(N=Nc3ccc4ccccc4c3O)c(O)cc(S(=O)(=O)O)c2c1`, the T/C (endpoint: median survival time, dose: 37.5 mg/kg/injection, schedule: Q01DX009 (ip), vehicle: saline, higher = longer survival) is reported as 101 % of control, the T/C (endpoint: median survival time, dose: 75.0 mg/kg/injection, schedule: Q01DX009 (ip), vehicle: saline, higher = longer survival) is reported as 109 % of control and the T/C (endpoint: median survival time, dose: 150.0 mg/kg/injection, schedule: Q01DX009 (ip), vehicle: saline, higher = longer survival) is reported as 94 % of control.
With `CC(=O)C(C)=O` the T/C [7] was 116 % of control, the T/C (endpoint: mean tumor weight, dose: 100.0 mg/kg/injection, schedule: Q01DX011 (ip), vehicle: saline, higher = larger tumour) was 76 % of control and the T/C [8] was 71 % of control. For the same compound, the T/C [9] was 87 % of control.
For `Cc1ccc2oc(-c3ccccc3)c(O)c(=O)c2c1`, the T/C (endpoint: mean tumor weight, dose: 18.8 mg/kg/injection, schedule: Q01DX010 (ip), vehicle: saline, higher = larger tumour) was 77 % of control, the T/C (endpoint: mean tumor weight, dose: 37.5 mg/kg/injection, schedule: Q01DX010 (ip), vehicle: saline, higher = larger tumour) was 73 % of control and the T/C (endpoint: mean tumor weight, dose: 75.0 mg/kg/injection, schedule: Q01DX010 (ip), vehicle: saline, higher = larger tumour) was 57 % of control. For the same compound, the T/C (endpoint: mean tumor weight, dose: 150.0 mg/kg/injection, schedule: Q01DX010 (ip), vehicle: saline, higher = larger tumour) was 86 % of control.
`O=C(O)c1cc(O)c(O)c(O)c1` was tested, and the T/C [7] was 111 % of control, the T/C [8] was 89 % of control and the T/C [9] was 99 % of control.
`O=NN(CCCl)C(=O)NC1CSCSC1` was tested, and the T/C (endpoint: median survival time, dose: 1.56 mg/kg/injection, schedule: Q01DX009 (ip), vehicle: saline with Tween-80, higher = longer survival) was 106 % of control, the T/C (endpoint: median survival time, dose: 3.12 mg/kg/injection, schedule: Q01DX009 (ip), vehicle: saline with Tween-80, higher = longer survival) was 104 % of control and the T/C (endpoint: median survival time, dose: 4.7 mg/kg/injection, schedule: Q04DX004 (ip), vehicle: saline with Tween-80, higher = longer survival) was 95 % of control. For the same compound, the T/C (endpoint: median survival time, dose: 5.0 mg/kg/injection, schedule: Q01DX001 (ip), vehicle: saline with Tween-80, higher = longer survival) was 116 % of control, the T/C [2] was 96 % of control and the T/C (endpoint: median survival time, dose: 7.0 mg/kg/injection, schedule: Q01DX001 (ip), vehicle: saline with Tween-80, higher = longer survival) was 117 % of control. The T/C (endpoint: median survival time, dose: 11.0 mg/kg/injection, schedule: Q04DX004 (ip), vehicle: saline with Tween-80, higher = longer survival) was 112 % of control, the T/C [4] was 109 % of control and the T/C (endpoint: median survival time, dose: 16.5 mg/kg/injection, schedule: Q04DX004 (ip), vehicle: saline with Tween-80, higher = longer survival) was 71 % of control. For the same compound, the T/C (endpoint: median survival time, dose: 23.0 mg/kg/injection, schedule: Q01DX001 (ip), vehicle: saline with Tween-80, higher = longer survival) was 163 % of control, the T/C (endpoint: median tumor weight (est.), dose: 7.3 mg/kg/injection, schedule: Q01DX001 (ip), vehicle: saline with Tween-80, higher = larger tumour) was 97 % of control and the T/C (endpoint: median tumor weight (est.), dose: 15.0 mg/kg/injection, schedule: Q01DX001 (ip), vehicle: saline with Tween-80, higher = larger tumour) was 32 % of control and 40 % of control. The T/C (endpoint: median tumor weight (est.), dose: 22.0 mg/kg/injection, schedule: Q01DX001 (ip), vehicle: saline with Tween-80, higher = larger tumour) was 8 % of control.
With `CCCCCC(=O)O[C@]1(C(C)=O)CC[C@H]2[C@@H]3CCC4=CC(=O)CC[C@]4(C)[C@H]3CC[C@@]21C` the T/C (endpoint: mean tumor weight, dose: 375.0 mg/kg/injection, schedule: Q01DX011 (sc), vehicle: steriod suspending solution, higher = larger tumour) was 89 % of control and 99 % of control and the T/C (endpoint: mean tumor weight, dose: 750.0 mg/kg/injection, schedule: Q01DX011 (sc), vehicle: steriod suspending solution, higher = larger tumour) was 91 % of control and 92 % of control.
